Experimental data taken from patent publication US20230398233A1, “OCULAR ANTIBODY-DRUG CONJUGATES” (ADS THERAPEUTICS LLC, priority 2020, published 2023).

Assay: Hydrolysis in water control (phosphate buffer)
Details: water control (method: phosphate buffer), 37° C., 0-72 h
Procedure: The 2 μL working solution of either the test compound or the control compound was added and mixed. The samples were incubated at 37° C. and the reaction was stopped by adding 200 μL of quenching solution at 0, 1, 4, 8, 12, 24, 48 and 72 and vortexed vigorously for −1 min. The solution was then centrifuged at 4,000 rpm at 4° C. for 15 min. The 100 μL of the supernatant was removed and mixed with 100 μL distilled water for LC-MS/MS analysis. The 10 μL standard curve working solution was spiked to 190 μL phosphate solution, The 200 μL of quenching solution was added to each standard curve wells. The blank sample was prepared by adding 2 μL of MeOH/DMSO solvent to replace the working solution. The double blank samples was prepared by adding 2 μL of MeOH/DMSO solvent to replace the working solution and by quenching the matrix with acetonitrile/MeOH.

Substance: mPEG-PrA-Dexa [Compound 2]
- T ½ in water control: No hydrolysis
